Source: ChEMBL document CHEMBL3507680, “University of Dundee, Gates Library screen for HepG2 cell viability”

Experiment: Human HepG2 cell viability assay in 384 well format
Format: toxicity, cell-based
Design: dose 125 nL, time 70.5 hour; concentration not given beside the values
Conditions: HepG2 cells, read-out: Inhibition

| SMILES | cytotoxicity at 70.5 h |
| --- | --- |
| Cc1ccc(C(=O)NCCCN2CCOCC2)c(Cl)c1 | -6.07% |
| O=C(NCC(O)c1ccccc1)Nc1cccs1 (stereo not drawn) | 18.8% |
| c1ccc(CCCN2CC[C@H](c3nnc(-c4ccccc4)o3)C2)cc1 | -2.93% |
| COc1cccc(CN2CC[C@H](c3nnc(-c4ccco4)o3)C2)c1 | 10.6% |
| CC(C)(C)c1c[nH]c([C@@H]2COCCN2C2CCOCC2)n1 | 12.2% |
| COc1ccc(CN2CCOC[C@H]2c2nc(-c3ccncc3)c[nH]2)cc1 | -1.1% |
| CC(=O)N1CCN(C(=O)C[C@@H]2C[C@@H](C(C)C)[C@H](CC#N)C=C2C)CC1 | 0.119% |
| COc1ccc(-c2cc(CC3(NCc4ccc(C)o4)COC3)no2)cc1 | 6.13% |
| Cn1ccnc1CN1C(=O)CO[C@H]2CN(Cc3ccc(F)c(F)c3)C[C@H]21 | 8.11% |
| O=C(c1cc(CC2(NCc3ccccc3)COC2)no1)N1CCCCC1 | -5.63% |
| CCCn1cnc2c1CN(S(=O)(=O)Cc1ccccc1)[C@H](C(=O)OC)C2 | 0.651% |
| c1ccc(CCCN2CC[C@H](c3nnc(-c4cccnc4)o3)C2)cc1 | -10.6% |
| CS(=O)(=O)N1C[C@@H](F)[C@@H](OCc2nc3ccccc3o2)C1 | 14.3% |
| F[C@@H]1CN(Cc2ccccc2)C[C@@H]1OCc1nc2ccccc2[nH]1 | 0.621% |
| F[C@@H]1CN(CC2CC2)C[C@@H]1OCc1nc2ccc(C(F)(F)F)cc2[nH]1 | 0.533% |
| O=C(C1CC1)N1C[C@@H](F)[C@@H](OCc2nc3cc(F)ccc3[nH]2)C1 | -3.11% |
| CC(=O)N1C[C@@H](F)[C@@H](OCc2nc3cc(C)c(C)cc3[nH]2)C1 | -0.883% |
| COC(=O)c1cccc2nc([C@H]3CCN(C4CCN(C)CC4)C3)oc12 | -2.72% |
| CC(=O)N1CCC(N2CC[C@H](c3nc4cc(C)ccc4o3)C2)CC1 | -1.07% |
| COC(=O)[C@@H]1Cc2ncn(C(C)C)c2CN1S(=O)(=O)Cc1ccccc1 | -6.37% |
| COCCOc1ccnc(-c2noc([C@@H]3CCCN3C)n2)c1 | -3.64% |
| COCc1cc(CC2(NC3CCN(C)CC3)COC2)no1 | 6.14% |

| SMILES | cytotoxicity at 70.5 h |
| --- | --- |
| CC(C)CN1C[C@@H]2OCC(=O)N(Cc3nccn3C)[C@@H]2C1 | 14% |
| Cc1ccc(-c2c[nH]c([C@@H]3COCCN3Cc3ncc[nH]3)n2)cc1 | 6.46% |
| Cc1ccc(-c2c[nH]c([C@@H]3COCCN3Cc3cccnc3)n2)cc1 | 14.4% |
| COCCN1C(=O)CO[C@H]2CN(S(=O)(=O)c3ccccc3)C[C@H]21 | -12.7% |
| COCC(=O)Nc1ccc(-c2noc([C@@H]3CCCN3)n2)cn1 | -0.348% |
| CC(C)(C)CN1CCC[C@H]1c1nc(-c2cncnc2N)no1 | -0.753% |
| Cc1cccc(O[C@H]2COCCN(C3CCC3)C2)n1 | -6.06% |
| CC1(C)[C@H](Cc2cc(CO)on2)C[C@@H]1NCc1ccc(CO)o1 | 14.7% |
| CC(=O)N1CCC(NC2(Cc3cc(CC(C)C)on3)COC2)CC1 | 3.96% |
| Cc1cccc(O[C@H]2COCCN(C3CCOCC3)C2)n1 | -9.61% |
| O=C(NC[C@H]1OC[C@@H](NCc2ccccc2)[C@@H]1O)Nc1ccc(F)cc1 | -4.13% |
| O=C(NC[C@H]1O[C@H](Cc2cc(-c3ccccn3)on2)CC[C@@H]1O)C1CC1 | -7.04% |
| CC(C)NC(=O)N1CCN2C(=O)N(Cc3ccc(F)cc3)C[C@H]2C1 | -4.66% |
| O=C(NC[C@H]1OC[C@@H](NC2COC2)[C@@H]1O)c1ccccc1 | -6.48% |
| O=C(NC[C@H]1OC[C@@H](NCc2ccccn2)[C@@H]1O)c1ccncc1 | -1.84% |
| CC(C)NC(=O)NC[C@H]1OC[C@@H](NCc2ccncc2)[C@@H]1O | -3.41% |
| COc1cc(C)c2c(c1C)C[C@H]([C@H](C)C(=O)O)CC2 | -3.45% |
| O=C1N[C@@H]2CCN(C(=O)C3CCC3)[C@@H]2C(=O)N1c1ccc(F)cc1 | 21.8% |
| O=C(c1cc(CC2(NCC3CCCCC3)COC2)no1)N1CCCCC1 | -6.68% |
| CN(C)Cc1cc(CC2(NCc3ccccc3Cl)COC2)no1 | -2.7% |
| CN1CCOC[C@H]1c1nc(-c2ccccc2)c[nH]1 | -9.46% |
| O=C(NC[C@H]1OC[C@@H](NC(=O)c2ccccc2)[C@@H]1O)c1ccncc1 | -0.603% |

| SMILES | cytotoxicity at 70.5 h |
| --- | --- |
| COC(=O)[C@H]1CN(C(C)=O)CCN1C(C)=O | -2.71% |
| CC(=O)N1CC[C@H]2CC(=O)N(CCc3c[nH]cn3)CC[C@H]2C1 | -2.6% |
| CCNC(=O)N1CC[C@H]2CC(=O)N(CC(N)=O)CC[C@H]2C1 | -1.17% |
| COCCOc1ncccc1-c1noc([C@@H]2CCCN2C2CCC2)n1 | -10.3% |
| COC(=O)c1cccc2nc([C@H]3CCN(Cc4ccccc4F)C3)oc12 | -6.68% |
| O=C([C@@H]1Cc2[nH]cnc2CN1Cc1cc2ccccc2o1)N1CCCC1 | 8.38% |
| O[C@@H]1C[C@@H](c2nc(-c3ccccc3)no2)N(C2CCOCC2)C1 | -3.47% |
| O=C(NC[C@H]1C[C@@H]2CCN1C[C@@H]2CN1CCOCC1)Nc1ccccc1 | -2.16% |
| O=C(NC[C@H]1OC[C@@H](NC2COC2)[C@@H]1O)c1cccs1 | -15.7% |
| Cc1cccc(O[C@H]2COCCN(Cc3sc(C)nc3C)C2)n1 | 10.9% |
| COCC(=O)N[C@H](C)c1onc(-c2ccc(F)cc2)c1C(=O)O | -6.83% |
| C[C@@H](NC(=O)c1cccn1C)c1c(-c2ccc(Cl)cc2)noc1C(=O)O | -7.66% |
| c1ccc(CNC[C@H]2Cn3ccnc3CO2)cc1 | 4.33% |
| CCC(=O)NCc1cc(C2CC2)n(C2CCCC2)n1 | 13.9% |
| O=C(CN1C(=O)CCC1=O)N1CCC(S(=O)(=O)Cc2ccco2)CC1 | -3.03% |
| Cn1cnnc1S(=O)(=O)C1CCN(C(=O)c2cccs2)CC1 | -10.5% |
| Cn1cnnc1S(=O)(=O)C1CCN(C(=O)c2ccsc2)CC1 | -9.56% |
| Cc1ccc(S(=O)(=O)N2CCC(S(=O)(=O)c3nncn3C)CC2)cc1C | -6.93% |
| CNC(=O)CS(=O)(=O)C1CCN(S(=O)(=O)c2cccc(Cl)c2C)CC1 | -9.92% |
| CC(=O)Nc1ccc(CC(=O)N2CC(S(=O)(=O)C3CCCCC3)C2)cc1 | -3.63% |
| COC1CCN(c2ccc(NC(=O)Cn3cccn3)cc2)CC1 | -8% |
| COC1CCN(c2ccc(NC(=O)Cn3cccc3)cc2)CC1 | -11% |

| SMILES | cytotoxicity at 70.5 h |
| --- | --- |
| O=C(Cc1ccccc1Cl)Nc1cnn(C2CCOC2)c1 (stereo not drawn) | -14% |
| O=C(Nc1cnn(C2CCOCC2)c1)c1ccc2c(c1)OCO2 | -16% |
| O=C(Cc1cccs1)Nc1cnn(C2CCOCC2)c1 | -12.8% |
| O=S(=O)(Nc1cnn(C2CCOCC2)c1)c1ccc(Br)cc1 | -5.21% |
| COC(C)(CNS(=O)(=O)c1cn(C)cn1)c1ccccc1F (stereo not drawn) | 9.94% |
| CCC(CNC(=O)C1CCC1)(OC)c1ccccc1 (stereo not drawn) | -1.73% |
| CCNC(=O)NCC(CC)(OC)c1ccccc1 (stereo not drawn) | -5.55% |
| O=C(NC1CC1)C1CCCN(c2cc(-n3cncn3)ncn2)C1 (stereo not drawn) | 13.5% |
| O=C(CSC1CCCC1)N1CCN(c2ccc(-n3cncn3)nn2)CC1 | -2.51% |
| COC(=O)c1cc(OC)c(OC)cc1N(C)S(C)(=O)=O | 41.7% |
| OCc1cnc(Nc2ccccc2)nc1 | 10.1% |
| COC(=O)C1CCCN1Cc1ccco1 (stereo not drawn) | -8.41% |
| CNCc1ccc(Oc2cncc(C)n2)cc1 | -12.9% |
| N#Cc1ccccc1Cn1cncn1 | 9.79% |
| c1coc(CN2CCC3(CC2)CC(N2CCCC2)CO3)c1 (stereo not drawn) | 33.2% |
| CCNC(=O)[C@@H]1C[C@H](NC(=O)c2ccccc2C#N)CN1CCCSC | -2.96% |
| COCCC1(CO)CCCN(Cc2ccc(F)c(C)c2)C1 (stereo not drawn) | -6.14% |
| CCn1c(Cn2cncn2)nnc1C1CCN(C(=O)CCSC)CC1 | -4.61% |
| Cc1cc(C)c2nc(CN3CC[C@@H](O)C3)cc(O)c2c1 | -4.35% |
| N#Cc1ccccc1CN1C[C@@H]2CC[C@H](C1)N(Cc1cscn1)C2=O | -11.1% |
| Cc1cccnc1CN1CCC(c2nnc(Cn3cccn3)n2C)CC1 | -7.96% |
| CCn1c(CN(C)C)nnc1C1CCN(c2ccnc(C)c2)CC1 | -3.44% |

| SMILES | cytotoxicity at 70.5 h |
| --- | --- |
| COc1ccc(C(=O)N2C[C@@H](C(=O)O)[C@H](c3ccccc3C)C2)c(O)c1 | -6.81% |
| CSCCC1c2nc[nH]c2CCN1Cc1cc(Cl)ccc1O (stereo not drawn) | -5.87% |
| Cc1cc(N2CCCN(C(=O)Cc3csc(C)n3)CC2)ccn1 | -12.4% |
| COc1ccc2c(c1)OCC(CNC(=O)c1ccc(=O)n(C)c1)C2 (stereo not drawn) | -10% |
| CC(C)Cc1noc(CN(C)C(=O)C2COc3ccccc3C2)n1 (stereo not drawn) | -14.4% |
| COc1cccc2c1OCC(CNC(=O)CSc1nc(N)n[nH]1)C2 (stereo not drawn) | -12% |
| CCn1nc(CNC(=O)C2CC(=O)N(C3CCCC3)C2)c2ccccc21 (stereo not drawn) | 13.8% |
| OCC1CCCCN1c1ccc(-c2nc(-c3ccccc3F)no2)cn1 (stereo not drawn) | -24.7% |
| Cc1cncc(C(=O)N2CCC(Cn3cc(-c4ccsc4)nn3)CC2)c1 | -16.9% |
| COCCN(C)C(=O)Cn1cccc(OC)c1=O | -9.38% |
| Cn1cc(CN2CC[C@@H]3[C@@H](CCC(=O)N3CCC3=CCCCC3)C2)cn1 | -4.77% |
| COCc1cn([C@@H]2c3ccccc3C3(CCNCC3)[C@H]2O)nn1 | -6.38% |
| O=C(O)[C@@H]1CN(C(=O)c2ccc3[nH]nnc3c2)C[C@H]1c1cccc(F)c1 | -8.9% |
| CCn1nc(CC(C)C)cc1C(=O)NCCn1cccc1 | -2.38% |
| CC(C)Oc1cc(N2C[C@@H](C)O[C@@H](C)C2)nc(N)n1 | -14.6% |
| CN(Cc1nccs1)c1nc(-c2ccccn2)nc2c1CCNCC2 | -4.75% |
| CCn1cc(CN2CCCn3nc(CNC(=O)C4CCC4)cc3C2)cn1 | -9% |
| CCn1ccnc1CN1CCC(CCC(=O)Nc2ccccc2Cl)CC1 | 11.7% |
| CCn1cc(CN2CCCn3nc(CCC(=O)NCCO)cc3C2)cn1 | -3.88% |
| CCS(=O)(=O)N1CCC(c2nnc(Cn3cccn3)n2C2CC2)CC1 | -0.619% |
